From US20260259229A1, “FATIGUE SYNDROME SIGNATURES AND METHODS OF TREATMENT” (The Board of Trustees of the Leland Stanford Junior …, priority 2023, published 2026)
“Also recorded” adds a separate entry of the source.

How the values were obtained:
CD4 T cells = test: Screening for reversal of oxidative damage: PBMCs treated with ROS inducer, then candidate drug; lipid peroxidation by flow cytometry (FIG. 9B, 9F); type: cell-based, human; conditions: drug after ROS inducer, versus positive control cells treated only with ROS inducer (FIG. 9F)
Experimental: FIGS. 9A-9F. Screening assays. (A) To identify drugs that can protect immune cell populations from oxidative stress, PBMCs are treated with candidate drugs (e.g., liproxstatin-1, metformin) for an hour, before treatment with ROS inducer (e.g., cumene […], tert-butyl hydroperoxide). By subsequently labeling cells with metabolic dyes to track oxidative stress parameters, comparisons with immune cells only treated with ROS inducer enable quantification of drugs capacity to protect against oxidative stress and damage in immune cell populations. (B) To identify drugs that can reverse oxidative stress and damage in immune cell populations, PBMCs are treated first with a ROS inducer for 30 minutes to an hour, before subsequent treatment with candidate drugs. By labeling with metabolic dyes and comparing the drug treated immune cell populations to those treated only with ROS inducer, we can quantify the capacity for drugs to reverse oxidative stress and damage in PBMCs. (C) To link these metabolic changes with immune cell function, control and disease PBMCs (e.g., from fatigue-syndrome patients) are labeled with proliferation dyes, upon which T cells are stimulated with anti-CD3/anti-CD28 antibodies and IL-2. By treating PBMCs with drugs identified from methodologies described in 9A and 9B, we can assess how metabolic changes to oxidative stress levels in drugs also modulate functional capacity of donor T cells to proliferate. While flowchart is specific to T cells (e.g., anti-CD3/anti-CD28 stimulation), the core methodology is applicable to other immune cell populations, where changes in immune cells capacity to proliferate can be assessed upon treatment with candidate drugs. (D) Application of methodology to a specific CFS patient is shown, where PBMCs treated with ROS-modulating drugs including N-acetylcysteine, metformin, and liproxstatin-1. Flow cytometry data is shown for CD4 T cells, where the x-axis corresponds to CellTraceViolet (proliferation dye) staining and the y-axis corresponds to total ROS levels. […] (E) Proportion of proliferating T cells are shown for a specific CFS patient (patient 27) along with their […] and […]. […] Lipid peroxidation changes are shown, where higher oxidative damage corresponds to a lower value on the y-axis. Identified drugs include N-acetylcysteine (NAC), metformin, liproxstatin-1, nicotinamide mononucleotide (NMN), oxaloacetate, MitoQ, Abilify, Colchicine, Naltrexone. Although this methodology is shown for CD4 T cells, it is broadly applicable to other immune cell populations (e.g., myeloid cells).
Staining: To stain for mitochondrial parameters, cells were stained with BioTracker ATP-Red Live Cell Dye (Sigma Aldrich), MitoTracker Deep Red FM (ThermoFisher), MitoSpy Green FM (BioLegend). To stain for ROS levels, cells were stained with DCFDA cellular ROS assay kit (abcam), MitoSOX Red Mitochondrial Superoxide detector (ThermoFisher). To stain for glutathione clearance and oxidative damage, cells were stained with ThiolTracker Violet (ThermoFisher), HCS LipidTOX Green Neutral Lipid Stain (ThermoFisher) for lipid droplet levels, and Image-iT™ Lipid Peroxidation Kit, ratiometric lipid peroxidation sensor (ThermoFisher). To capture viability, cells were stained with LIVE/DEAD Fixable Far Red Dead Cell Stain (ThermoFisher).

[1] = test system: CD4 and CD8 T cells (donor PBMCs); test: T cell proliferation assay: CellTrace Violet dye dilution, PBMCs stimulated with anti-CD3/anti-CD28 antibodies and IL-2, treated with ROS-modulating drugs; type: cell-based, human; conditions: for proportion of proliferating T cells, HC and ME-CFS PBMCs (FIG. 15): 100 μM N-acetylcysteine, liproxstatin-1, 5-days post activation; for effect in reducing T cell hyperproliferation in ME/CFS donors: female ME/CFS donors, p: NAC CD4 0.82, CD8 0.7, metformin CD4 0.041, CD8 0.39, liproxstatin-1 CD4 0.31, CD8 0.18; for reduction in T cell proliferation upon treatment, male ME/CFS: male ME/CFS PBMCs (FIG. 17: 100 μM N-acetylcysteine, 10 μM metformin, 1 μM liproxstatin-1); for proportion of proliferating CD4 T cells upon stimulation: patient 27 (ME/CFS) PBMCs treated at day 0, read 5 days after stimulation, untreated 79.3%; for effect in lowering T cell proliferation in LC female donors: female LC PBMCs (FIG. 16)
patients = conditions: double-blinded phase III studies on >1300 patients, especially among female patients; cited from earlier work

| SMILES | capacity for reversing oxidative damage (lipid peroxidation changes) (CD4 T cells) | effect in reducing T cell hyperproliferation in ME/CFS donors ([1]; 5 days post stimulation) | reduction in T cell proliferation upon treatment, male ME/CFS [1] | proportion of proliferating CD4 T cells upon stimulation [1] [%] | other results |
| --- | --- | --- | --- | --- | --- |
| O=C1CCc2ccc(OCCCCN3CCN(c4cccc(Cl)c4Cl)CC3)cc2N1 [Abilify] | reversing oxidative damage | – | – | – | – |
| COc1cc2c(c(OC)c1OC)-c1ccc(OC)c(=O)cc1[C@@H](NC(C)=O)CC2 [Colchicine] | reversing oxidative damage | – | – | – | – |
| COC1=C(OC)C(=O)C(CCCCCCCCCC[P+](c2ccccc2)(c2ccccc2)c2ccccc2)=C(C)C1=O [MitoQ] | reversing oxidative damage | – | – | – | – |
| CC(=O)N[C@@H](CS)C(=O)O [NAC, N-acetylcysteine] | reversing oxidative damage | did not have any effect | did not observe any reduction | 54.3 | proportion of proliferating T cells, HC and ME-CFS PBMCs (FIG. 15) [1]: no difference or decrease |
| O=C1CC[C@@]2(O)[C@H]3Cc4ccc(O)c5c4[C@@]2(CCN3CC2CC2)[C@H]1O5 [Naltrexone] | reversing oxidative damage | – | – | – | – |
| Clc1cccc(CN=C2Nc3ccccc3NC23CCNCC3)c1 [liproxstatin-1] | reversing oxidative damage | did not show a statistically significant effect | did not observe any reduction | 64.5 | proportion of proliferating T cells, HC and ME-CFS PBMCs (FIG. 15) [1]: selectively lowers proliferation in ME-CFS and not the HC donors; effect in lowering T cell proliferation in LC female donors ([1]; 5 days post stimulation): did not show a statistically significant effect |
| CN(C)C(=N)N=C(N)N [metformin] | reversing oxidative damage | statistically significant effect in reducing CD4 T cell hyperproliferation; also recorded: statistically significant reduction | did not observe any reduction | 53.2 | reduction of Long COVID incidence (patients): 41%; effect on T cell proliferation in healthy controls ([1]; HC donors, 5 days post stimulation, metformin CD4 p=1, CD8 p=0.69): no effect; also recorded: does not alter proliferation; average reduction of CD4 T cell proliferation ([1]; LC donor PBMCs, metformin treatment (10 μM, FIG. 16B), p=0.31): 5.2%; average reduction of CD8 T cell proliferation ([1]; LC donor PBMCs, metformin treatment (10 μM, FIG. 16B), p=0.42): 7.6%; effect in lowering T cell proliferation in LC female donors ([1]; 5 days post stimulation): smaller and non-statistically significant effect |
| NC(=O)c1ccc[n+]([C@@H]2O[C@H](COP(=O)([O-])O)[C@@H](O)[C@H]2O)c1 [nicotinamide mononucleotide] | reversing oxidative damage | – | – | – | – |
